# Data taken from patent US20190192699A1, “NUCLEAR IMAGING AND RADIOTHERAPEUTICS AGENTS TARGETING CARBONIC ANHYDRASE IX AND USES THEREOF” (THE JOHNS HOPKINS UNIVERSITY, priority 2016, published 2019).
# Where “and” joins values, the source holds several entries; their conditions need not be identical. Identical values can stand only once. Entries after “also recorded” stand apart in the source; their conditions may differ.
# Experiments:
# [1] = system: SK-RC-52 xenografts; experiment: Biodistribution of [64Cu]XYIMSR-06; type: in vivo, mice
# Experimental: (§1) Cell Lines and Mouse Models. Animal experiments were performed in accordance with protocols approved by the Johns Hopkins Animal Care and Use Committee (ACUC). Six-week-old female NOD/SCID mice were purchased from the Animal Resource Core of the Sidney Kimmel Comprehensive Cancer Center of Johns Hopkins and were subcutaneously injected in the lower left flank or upper right flank with 1×10^6 SK-RC-52 cells in RPMI 1640 GlutaMAX™ media (Life Technologies, Frederick, Md.) supplemented with 1% fetal bovine serum (FBS). Mice were monitored for tumor size and used for SPECT/CT imaging when the size of the tumor reached 100 mm^3.
# Biodistribution of [^64Cu]XYIMSR-06. Mice bearing SK-RC-52 xenografts within the upper right flank were injected intravenously with 740 kBq (20 μCi) of [^64Cu]XYIMSR-06 in 200 μL of PBS. For in vivo competition (binding specificity) studies, tumor-bearing mice were injected with 740 kBq (20 μCi) of [^64Cu]XYIMSR-06 and 200 nmole of 1 in 200 μL of PBS concurrently. At specific times after injection (1 h, 4 h, 8 h and 24 h), mice (n=5) were sacrificed by cervical dislocation with blood immediately collected by cardiac puncture. Heart, lungs, pancreas, spleen, fat, brain, muscle, small intestines, liver, stomach, kidney, urinary bladder, and tumor were also collected. Each organ was weighed and the tissue radioactivity was measured with an automated gamma counter (1282 Compugamma CS, Pharmacia/LKBNuclear, Inc., Mt. Waverly, Vic. Australia). The percentage of injected dose per gram of tissue (% ID/g) was calculated by comparison with samples of a standard dilution of the initial dose. All measurements were corrected for radioactive decay. Data were expressed as mean±standard deviation (SD). Prism software (GraphPAD, San Diego, Calif.) was used to determine statistical significance. Statistical significance was calculated using a paired t test. P-values […] were considered significant.
# [2] = system: CAIX-expressing SK-RC-52 tumors; experiment: PET/CT imaging of [64Cu]XYIMSR-06; type: in vivo, mice; conditions: 22.2 MBq (600 μCi) via tail vein
# Experimental: as §1
# PET/CT imaging of [^64Cu]XYIMSR-06. Mice harboring subcutaneous SK-RC-52 tumors within the upper right flank were injected intravenously (tail vein) with 22.2 MBq (600 μCi) of [^64Cu]XYIMSR-06 in 250 μL of PBS (pH=7.0). Anesthesia was then induced with 3% isoflurane and maintained with 2% isoflurane. Physiologic temperature was maintained with an external light source while the mouse was on the gantry. Whole body, 2-bed PET/CT imaging was performed using the SuperArgus small animal PET/CT scanner (Sedecal, Madrid, Spain), […] a 250-700 keV energy window. PET acquisition times were: 5 min/bed position (1 h post-injection of [^64Cu]XYIMSR-06); 10 min/bed position (4 and 8 h) and 20 min/bed position (24 h). […]
# [3] = 8 h + block (200 nmole of 1 co-injected)
# [4] = 24 h + block (200 nmole of 1 co-injected)
structure (smiles),measurement,setting,value
CC(CCC(=O)N[C@@H](CC(=O)N[C@@H](CC(=O)N[C@@H](CCCCn1cc(CCCC(=O)Nc2nnc(S(N)(=O)=O)s2)nn1)C(=O)NCCOCCOCCNC(=S)Nc1ccc(CC2CN(CC(=O)[O-])CCN(CC(=O)[O-])CCN2CC(=O)O)cc1)C(=O)O)C(=O)O)(c1ccc(O)cc1)c1ccc(O)cc1.[64Cu+2] (stereo partly shown) [[^64Cu]XYIMSR-06],Biodistribution: Bladder,[1]; 1 h post-injection,11.12 ± 6.33 % ID/g
same,Biodistribution: Blood,[1]; 1 h post-injection,0.66 ± 0.05 % ID/g
same,Biodistribution: Brain,[1]; 1 h post-injection,1.46 ± 2.23 % ID/g
same,Biodistribution: Fat,[1]; 1 h post-injection,0.80 ± 0.17 % ID/g
same,Biodistribution: Heart,[1]; 1 h post-injection,3.41 ± 0.79 % ID/g
same,Biodistribution: Kidney (kid),[1]; 1 h post-injection,33.65 ± 3.91 % ID/g
same,Biodistribution: Liver,[1]; 1 h post-injection,3.25 ± 0.97 % ID/g
same,Biodistribution: Lung,[1]; 1 h post-injection,25.52 ± 3.35 % ID/g
same,Biodistribution: Muscle (mm),[1]; 1 h post-injection,1.28 ± 0.27 % ID/g
same,Biodistribution: Pancreas,[1]; 1 h post-injection,2.94 ± 0.24 % ID/g
same,Biodistribution: Sm. intestine,[1]; 1 h post-injection,7.35 ± 0.78 % ID/g
same,Biodistribution: Spleen,[1]; 1 h post-injection,0.36 ± 0.08 % ID/g
same,Biodistribution: Stomach,[1]; 1 h post-injection,14.80 ± 2.27 % ID/g
same,Biodistribution: Tumor,[1]; 1 h post-injection,14.5 % ID/g and 14.47 ± 2.69 % ID/g
same,Tumor/kid (kidney) ratio,[1]; 1 h post-injection,0.4 ± 0.1
same,Tumor/mm (muscle) ratio,[1]; 1 h post-injection,10.8 ± 3.7
same,Biodistribution: Bladder,[1]; 4 h post-injection,17.05 ± 8.86 % ID/g
same,Biodistribution: Blood,[1]; 4 h post-injection,0.33 ± 0.06 % ID/g
same,Biodistribution: Brain,[1]; 4 h post-injection,0.29 ± 0.06 % ID/g
same,Biodistribution: Fat,[1]; 4 h post-injection,0.52 ± 0.29 % ID/g
same,Biodistribution: Heart,[1]; 4 h post-injection,1.78 ± 0.33 % ID/g
same,Biodistribution: Kidney (kid),[1]; 4 h post-injection,19.99 ± 2.88 % ID/g
same,Biodistribution: Liver,[1]; 4 h post-injection,2.18 ± 0.57 % ID/g
same,Biodistribution: Lung,[1]; 4 h post-injection,12.03 ± 1.61 % ID/g
same,Biodistribution: Muscle (mm),[1]; 4 h post-injection,0.70 ± 0.18 % ID/g
same,Biodistribution: Pancreas,[1]; 4 h post-injection,1.36 ± 0.19 % ID/g
same,Biodistribution: Sm. intestine,[1]; 4 h post-injection,4.15 ± 0.69 % ID/g
same,Biodistribution: Spleen,[1]; 4 h post-injection,0.24 ± 0.04 % ID/g
same,Biodistribution: Stomach,[1]; 4 h post-injection,8.19 ± 0.97 % ID/g
same,Biodistribution: Tumor,[1]; 4 h post-injection,19.3 % ID/g and 19.31 ± 4.51 % ID/g
same,Tumor/Blood ratio,[1]; 4 h post-injection,57.7 ± 9.3
same,Tumor/kid (kidney) ratio,[1]; 4 h post-injection,1.0 ± 0.1
same,Tumor/mm (muscle) ratio,[1]; 4 h post-injection,29.4 ± 9.9
same,Biodistribution: Bladder,[1]; [3],1.45 ± 1.53 % ID/g
same,Biodistribution: Blood,[1]; [3],0.08 ± 0.01 % ID/g
same,Biodistribution: Brain,[1]; [3],0.04 ± 0.01 % ID/g
same,Biodistribution: Fat,[1]; [3],0.05 ± 0.01 % ID/g
same,Biodistribution: Heart,[1]; [3],0.16 ± 0.03 % ID/g
same,Biodistribution: Kidney (kid),[1]; [3],1.82 ± 0.39 % ID/g
same,Biodistribution: Liver,[1]; [3],0.55 ± 0.08 % ID/g
same,Biodistribution: Lung,[1]; [3],0.77 ± 0.14 % ID/g
same,Biodistribution: Muscle (mm),[1]; [3],0.05 ± 0.02 % ID/g
same,Biodistribution: Pancreas,[1]; [3],0.14 ± 0.03 % ID/g
same,Biodistribution: Sm. intestine,[1]; [3],0.38 ± 0.06 % ID/g
same,Biodistribution: Spleen,[1]; [3],0.14 ± 0.02 % ID/g
same,Biodistribution: Stomach,[1]; [3],0.69 ± 0.18 % ID/g
same,Biodistribution: Tumor,[1]; [3],2.39 ± 0.24 % ID/g
same,Tumor/Blood ratio,[1]; [3],32.0 ± 3.8
same,Tumor/kid (kidney) ratio,[1]; [3],1.3 ± 10.2
same,Tumor/mm (muscle) ratio,[1]; [3],53.0 ± 12.6
same,Biodistribution: Bladder,[1]; 8 h post-injection,7.43 ± 7.72 % ID/g
same,Biodistribution: Blood,[1]; 8 h post-injection,0.13 ± 0.02 % ID/g
same,Biodistribution: Brain,[1]; 8 h post-injection,0.24 ± 0.06 % ID/g
same,Biodistribution: Fat,[1]; 8 h post-injection,0.28 ± 0.27 % ID/g
same,Biodistribution: Heart,[1]; 8 h post-injection,0.65 ± 0.10 % ID/g
same,Biodistribution: Kidney (kid),[1]; 8 h post-injection,8.14 ± 1.15 % ID/g
same,Biodistribution: Liver,[1]; 8 h post-injection,0.99 ± 0.22 % ID/g
same,Biodistribution: Lung,[1]; 8 h post-injection,4.64 ± 0.58 % ID/g
same,Biodistribution: Muscle (mm),[1]; 8 h post-injection,0.21 ± 0.05 % ID/g
same,Biodistribution: Pancreas,[1]; 8 h post-injection,0.47 ± 0.21 % ID/g
same,Biodistribution: Sm. intestine,[1]; 8 h post-injection,1.98 ± 0.14 % ID/g
same,Biodistribution: Spleen,[1]; 8 h post-injection,0.18 ± 0.02 % ID/g
same,Biodistribution: Stomach,[1]; 8 h post-injection,4.02 ± 0.53 % ID/g
same,Biodistribution: Tumor,[1]; 8 h post-injection,16.74 ± 1.58 % ID/g
same,Tumor/Blood ratio,[1]; 8 h post-injection,129.6±18.8
same,Tumor/kid (kidney) ratio,[1]; 8 h post-injection,2.1±0.26
same,Tumor/mm (muscle) ratio,[1]; 8 h post-injection,84.3±21.0
same,all other tumor-to-organ ratios tested,[1]; 24 h,≥ 10.0
same,tumor-to-lung ratio,[1]; 24 h,4.9
same,Biodistribution: Bladder,[1]; [4],0.45 ± 0.50 % ID/g
same,Biodistribution: Blood,[1]; [4],0.01 ± 0.08 % ID/g
same,Biodistribution: Brain,[1]; [4],0.02 ± 0.01 % ID/g
same,Biodistribution: Fat,[1]; [4],0.01 ± 0.01 % ID/g
same,Biodistribution: Heart,[1]; [4],0.08 ± 0.01 % ID/g
same,Biodistribution: Kidney (kid),[1]; [4],0.48 ± 0.09 % ID/g
same,Biodistribution: Liver,[1]; [4],0.42 ± 0.04 % ID/g
same,Biodistribution: Lung,[1]; [4],0.29 ± 0.05 % ID/g
same,Biodistribution: Muscle (mm),[1]; [4],0.04 ± 0.06 % ID/g
same,Biodistribution: Pancreas,[1]; [4],0.07 ± 0.02 % ID/g
same,Biodistribution: Sm. intestine,[1]; [4],0.19 ± 0.05 % ID/g
same,Biodistribution: Spleen,[1]; [4],0.11 ± 0.04 % ID/g
same,Biodistribution: Stomach,[1]; [4],0.29 ± 0.04 % ID/g
same,Biodistribution: Tumor,[1]; [4],1.20 ± 0.47 % ID/g
same,Tumor/Blood ratio,[1]; [4],27.1 ± 26.7
same,Tumor/kid (kidney) ratio,[1]; [4],2.4 ± 0.4
same,Tumor/mm (muscle) ratio,[1]; [4],49.0 ± 28.7
same,Biodistribution: Bladder,[1]; 24 h post-injection,0.34 ± 0.09 % ID/g
same,Biodistribution: Blood,[1]; 24 h post-injection,0.00 ± 0.06 % ID/g
same,Biodistribution: Brain,[1]; 24 h post-injection,0.13 ± 0.02 % ID/g
same,Biodistribution: Fat,[1]; 24 h post-injection,0.03 ± 0.01 % ID/g
same,Biodistribution: Heart,[1]; 24 h post-injection,0.12 ± 0.03 % ID/g
same,Biodistribution: Kidney (kid),[1]; 24 h post-injection,0.90 ± 0.12 % ID/g
same,Biodistribution: Liver,[1]; 24 h post-injection,0.38 ± 0.03 % ID/g
same,Biodistribution: Lung,[1]; 24 h post-injection,1.27 ± 0.38 % ID/g
same,Biodistribution: Muscle (mm),[1]; 24 h post-injection,0.02 ± 0.01 % ID/g
same,Biodistribution: Pancreas,[1]; 24 h post-injection,0.21 ± 0.29 % ID/g
same,Biodistribution: Sm. intestine,[1]; 24 h post-injection,0.47 ± 0.03 % ID/g
same,Biodistribution: Spleen,[1]; 24 h post-injection,0.09 ± 0.01 % ID/g
same,Biodistribution: Stomach,[1]; 24 h post-injection,0.65 ± 0.04 % ID/g
same,Biodistribution: Tumor,[1]; 24 h post-injection,6.2 % ID/g and 6.23 ± 1.41 % ID/g
same,Tumor/Blood ratio,[1]; 24 h post-injection,142.6 ± 115.8
same,Tumor/kid (kidney) ratio,[1]; 24 h post-injection,7.1 and 7.1 ± 2.5
same,Tumor/mm (muscle) ratio,[1]; 24 h post-injection,261.3 ± 47.3
same,tumor uptake on co-injection of 200 nmole of 1,[1]; co-injection of 200 nmole of 1,blocked tumor uptake
same,radiotracer uptake within liver (in vivo stability of NOTA-64Cu chelation),[1]; within 24 h,no significant radiotracer uptake within liver
same,PET/CT tumor imaging finding,[2],"radiotracer uptake in tumor as early as 1 h post-injection; also recorded: At 1 h, tumor could be observed distinctly"
